From US6469004B1, “Benzoheterocycles and their uses as MEK inhibitors” (Warner-Lambert Company, priority 1999, dated 2002)
Where a name gives a salt, the structure may show the parent alone. Read-outs that look alike come from different tables or passages of the source.

How the values were obtained:
[1] = test system: colon 26 cells; assay: colon 26 cells IC50 (whole cell assay); type: cell-based; conditions: Mus musculus
Protocol: Whole Cell MAP Kinase Assay
To determine if compounds block activation of MAP kinase in whole cells, the following protocol is used. Cells are plated in multi-well plates and grown to confluence. Cells are serum-deprived overnight. […] After a 5-minute treatment with the growth factor, cells are washed with PBS, and lysed in a buffer consisting of 70 mM NaCl, 10 mM HEPES (pH 7.4), 50 mM glycerol phosphate, and 1% Triton X-100. Lysates are clarified by centrifugation at 13,000×g for 10 minutes. Five to fifteen micrograms of protein from the resulting supernatants are subjected to SDS/PAGE and Western blotting for phosphorylated MAP kinase levels.

[2] = target: GST-MEK (p45MEK) / GST-MAPK (p44MAP kinase) cascade (APK) (Homo sapiens, UniProt Q02750); assay: APK IC50 (cascade assay for inhibitors of the MAP kinase pathway); type: biochemical
Chain of GST-MEK (p45MEK) / GST-MAPK (p44MAP kinase) cascade (APK) (Q02750 whole entry): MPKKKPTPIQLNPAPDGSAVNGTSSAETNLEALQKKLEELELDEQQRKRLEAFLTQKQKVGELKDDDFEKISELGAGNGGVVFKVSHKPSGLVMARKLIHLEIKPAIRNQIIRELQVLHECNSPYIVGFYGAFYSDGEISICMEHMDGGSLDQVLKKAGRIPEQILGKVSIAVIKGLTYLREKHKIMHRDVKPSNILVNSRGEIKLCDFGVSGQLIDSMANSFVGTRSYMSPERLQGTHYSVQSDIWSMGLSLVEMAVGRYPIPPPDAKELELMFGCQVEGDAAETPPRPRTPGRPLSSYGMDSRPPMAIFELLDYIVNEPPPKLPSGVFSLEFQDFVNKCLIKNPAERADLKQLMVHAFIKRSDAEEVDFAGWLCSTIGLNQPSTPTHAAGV
Protocol: Cascade Assay for Inhibitors of the MAP Kinase Pathway
Incorporation of ^32P into myelin basic protein (MBP) is assayed in the presence of a glutathione S-transferase fusion protein containing p44MAP kinase (GST-MAPK) and a glutathione S-transferase fusion protein containing p45MEK (GST-MEK). The assay solution contains 20 mM HEPES, pH 7.4, 10 mM MgCl2, 1 mM EGTA, 50 μM [γ-^32P]ATP, 10 μg GST-MEK, 0.5 μg GST-MAPK and 40 μg MBP in a final volume of 100 μL. Reactions are stopped after 20 minutes by addition of trichloroacetic acid and filtered through a GFIC filter mat. ^32P retained on the filter mat is determined using a 120S Betaplate. Compounds are assessed at 10 μM for ability to inhibit incorporation of 32P.
To ascertain whether compounds are inhibiting GST-MEK or GST MAPK, two additional protocols are employed. In the first protocol, compounds are added to tubes containing GST-MEK, followed by addition of GST-MAPK, MBP and [γ-^32P]ATP. In the second protocol, compounds are added to tubes containing both GST-MEK and GST-MAPK, followed by MBP and [γ-^32P]ATP.
Compounds that show activity in both protocols are scored as MAPK inhibitors, while compounds showing activity in only the first protocol are scored as MEK inhibitors.

| Structure (SMILES) | melting point | IC50 ([1]; read-out: colon 26 cells, IC50) [nM] | IC50 [2] [nM] | IC50 ([1]; read-out: Colon 26 Cells, 1 Hour Pretreatment, IC50) [nM] |
| --- | --- | --- | --- | --- |
| Cc1cc(I)ccc1Nc1c(C(=O)NOCC2CC2)cc2nc[nH]c2c1F (as salt: salt) [PD 254552, 7-fluoro-6-(4-iodo-2-methyl-phenylamino)-1H-benzoimidazole-5-carboxylic acid cyclopropylmethoxy-amide] | 168 to 172 °C |  |  |  |
| Cc1cc(I)ccc1Nc1c(C(=O)O)cc2nc[nH]c2c1F [PD 205293, 7-fluoro-6-(4-iodo-2-methyl-phenylamino)-1H-benzoimidazole-5-carboxylic acid] | 247 to 248 °C (dec.) | > 10000 |  |  |
| Cc1cc(I)ccc1Nc1c(C(=O)Oc2c(F)c(F)c(F)c(F)c2F)cc2nc[nH]c2c1F [PD 254551, 7-fluoro-6-(4-iodo-2-methyl-phenylamino)-1H-benzoimidazole-5-carboxylic acid pentafluorophenyl ester] |  |  | 120 |  |
| Cc1cc(I)ccc1Nc1c(C(=O)NOCC2CC2)cc2nc[nH]c2c1F [PD 254552, 7-fluoro-6-(4-iodo-2-methyl-phenylamino)-1H-benzoimidazole-5-carboxylic acid cyclopropylmethoxy-amide] |  |  | < 10 | 20 |
